Experimental data taken from patent US20160280651A1, “COMPOUNDS THAT INDUCE ABA RESPONSES” (THE REGENTS OF THE UNIVERSITY OF CALIFORNIA, priority 2013, published 2016).

Columns and labels:
[1] = tested on: PYR/PYL receptors and the PP2C HAB1; assay: Yeast two-hybrid agonist assay (screens and receptor sensitivity); format: cell-based, Arabidopsis; settings: 5 μM of test chemicals
Method: FIG. 1A-FIG. 1B. Novel ABA agonists bind to multiple PYR/PYL. (A) Chemical structure of naturally occurring (+)-ABA, its (−)analog and selected ABA agonists. (B) Yeast two-hybrid agonist assays of PYR/PYL receptor sensitivity to 5 μM of test chemicals. Specific PYR/PYL Receptors and the PP2C HAB1 are expressed as Ga14 BD or AD fusion proteins respectively, as described in the text.
A previously described yeast two-hybrid system was used in high throughput screens (HTS) to identify ABA agonists (see, Peterson F C, et al. (2010) Structural basis for selective activation of ABA receptors. Nature Structural & Molecular Biology 17(9):1109-1111). In this system the agonist promoted receptor-PP2C interaction drives expression of a URA3 or HIS3 reporter gene and rescues uracil or histidine auxotrophy of parental strains (Peterson F C, et al. (2010); Vidal M, Brachmann R K, Fattaey A, Harlow E, & Boeke J D (1996) Reverse two-hybrid and one-hybrid systems to detect dissociation of protein-protein and DNA-protein interactions. Proceedings of the National Academy of Sciences of the United States of America 93(19):10315-10320). […]

[2] = tested on: ABI2 with PYR/PYL receptors; assay: Receptor-mediated PP2C inhibition assay with ABI2, Example 1; format: biochemical, Arabidopsis; settings: 10 μM; receptors PYR1, PYL1, PYL2, PYL3 and PYL5
Method: FIG. 2A-FIG. 2C. Novel ABA agonists inhibit PPC2 activity through multiple PYR/PYL. (A) Chemical structure of naturally occurring (+)-ABA and selected ABA agonists. (B) and (C) HAB1, ABU, and ABI2 PP2C enzyme activity based ABA-agonist assays for various receptors in the presence or absence of 10 μM each test chemical.
HAB1 and PYL proteins were expressed and purified as described previously (Park S Y, et al. (2009) Abscisic Acid Inhibits Type 2C Protein Phosphatases via the PYR/PYL Family of START Proteins. Science 324(5930):1068-1071), with minor modifications. To obtain GST-HAB1, -ABI1 and -ABI2 fusion proteins, the HAB1 cDNA was cloned into pGex-2T whereas ABI1 and ABI2 cDNAs were cloned into the vector pGex-4T-1. […] After 16 hours incubation at 15° C., cells were harvested and recombinant proteins were purified on glutathione agarose as described previously (Park S Y, et al. (2009). To obtain 6×His-PYL receptor fusion proteins, receptor cDNAs for all 13 ABA receptors were cloned into the vector pET28 and expressed and purified as described previously (Mosquna A, et al. (2011) Potent and selective activation of abscisic acid receptors in vivo by mutational stabilization of their agonist-bound conformation. PNAS 108(51):20838-20843); this yielded soluble and functional protein (assessed using receptor-mediated PP2C inhibition assays) for all receptors except PYL7, PYL11 and PYL12. […]

Row | Compound | Agonist activity and receptor selectivity in yeast two-hybrid assay [1] | PP2C inhibition of ABI2 [2] [%]
1 | CCCN1C(=O)CCc2cc(NS(=O)(=O)Cc3ccc(C)cc3)ccc21 [LC66C6] | agonist of multiple PYR/PYL receptors | > 70
2 | O=S(=O)(NCc1ccccn1)c1ccc(Br)c2ccccc12 [pyrabactin, reference compound] | much greater receptor selectivity than ABA or the new agonist LC66C6 | 
